Experimental data: patent publication US10421782B2, “Cyclic cationic peptides with antimicrobial activity” (I.C.F. S.R.L., priority 2012, dated 2019)
In brackets after ≈: the same amount, converted by molar mass. Where two headings read alike, the source gives them in different places. Where a SMILES comes first, the peptide text is derived from it. Bridges are numbered along the chain shown (N, C = ends).

What was measured:
[1] = test system: Pseudomonas aeruginosa ATCC 27853; type: cell-based
Procedure: (§1) For each bacterial strain, 3-5 morphologically similar colonies were drawn from fresh cultures, inoculated in Brain Hearth Infusion broth liquid medium and incubated at the temperature of 37° C. under shaking at 225 r.p.m. for 3-4 h. Subsequently, the bacterial suspension was centrifuged at 1000 g for 20 min and the thus obtained pellet was resuspended in phosphate buffer 10 mM. Turbidity was measured in a spectrophotometer with absorbance at 600 nm, equivalent in the range 0.08-0.13 to a concentration of about 10^8 CFU/ml. The bacterial suspension was diluted 1:100 in phosphate buffer 10 mM, and within 30 min 50 microliters of such bacterial suspension (10^6 CFU/ml) were inoculated in each well of the microtiter plate, to obtain a final bacterial concentration of about 5×10^5 CFU/ml.
(§2) Several peptides were tested for their ability to inhibit bacterial growth in liquid culture. Fifty microliters of peptide at a concentration comprised between about 0.2 mM and 50 mM were added in 96-well U-bottom plates containing liquid growth medium and one of the following bacteria: Escherichia coli ATCC 25922, P. aeruginosa ATCC 27853, Stenotrophomonas maltophilia ATCC 13637. After 2 hour incubation at 37° C., bacteria were transferred on a solid medium. As a growth control, bacterial cultures were cultured in the absence of peptides.
(§3) The bacterial suspension was put in contact for two hours with different concentrations of the peptide at the temperature of 37° C. After incubation, 20 μl were drawn from the wells of each dilution and seeded on solid medium, agar McConkey. The inoculum was evenly distributed on the agarized medium by means of a sterile disposable loop. After incubation for 24 h at the temperature of 37° C., counting of the bacterial colonies (CFU) was performed.

[2] = test system: Escherichia coli ATCC 25922; type: cell-based
Procedure: as §1, §2, §3

[3] = further tests, test of Table 2a

| Compound | MBC P. aeruginosa ATCC 27853 ([1]; ATCC 27853) [µg/mL] | MBC E. coli ATCC 25922 ([2]; ATCC 25922) [µg/mL] | MBC P. aeruginosa ATCC 27853 [1, 3] | MBC E. coli ATCC 25922 [2, 3] |
| --- | --- | --- | --- | --- |
| CC[C@H](C)[C@H](NC(=O)[C@H](C)N)C(=O)N[C@H]1CSSC[C@@H](C(=O)N[C@@H](CCCCN)C(=O)O)NC(=O)[C@H](C)NC(=O)[C@H](CCCCN)NC(=O)[C@H](Cc2c[nH]c3ccccc23)NC(=O)[C@H](CCCCN)NC(=O)[C@H](Cc2c[nH]cn2)NC(=O)CNC(=O)[C@H](CCCNC(=N)N)NC(=O)[C@H](Cc2ccc(O)cc2)NC(=O)[C@H](CCCCN)NC(=O)[C@H](Cc2c[nH]c3ccccc23)NC(=O)[C@H]([C@@H](C)O)NC(=O)[C@H](CCCNC(=N)N)NC1=O [SEQ.ID.NO.: 4, Ala*Ile*Cys*Arg*Thr*Trp*Lys*Tyr*Arg*Gly*His*Lys*Trp*Lys*Ala*Cys*Lys*] (H-AICRTWKYRGHKWKACK-OH; disulfide 3-16; N-terminus and C-terminus assumed) | 1.14 (≈ 0.534 µM) | 17.37 (≈ 8.14 µM) |  |  |
| CC[C@H](C)[C@@H]1NC(=O)CNC(=O)[C@H](CCCNC(=N)N)NC(=O)[C@H](Cc2c[nH]c3ccccc23)NC(=O)[C@H](CCCCN)NC(=O)[C@H](Cc2c[nH]c3ccccc23)NC(=O)[C@H](CCCCN)NC(=O)[C@H](CC(C)C)NC(=O)[C@@H](NC(=O)[C@H](CC(N)=O)NC(=O)[C@@H](N)CCCCN)CSSC[C@@H](C(=O)N[C@@H](CC(C)C)C(=O)O)NC(=O)[C@H](CCCCN)NC(=O)[C@H](CCCNC(=N)N)NC(=O)[C@H](Cc2ccc(O)cc2)NC(=O)[C@H]([C@@H](C)O)NC1=O [SEQ.ID.NO.: 9, Lys*Asn*Cys*Leu*Lys*Trp*Lys*Trp*Arg*Gly*Ile*Thr*Tyr*Arg*Lys*Cys*Leu*] (H-KNCLKWKWRGITYRKCL-OH; disulfide 3-16; N-terminus and C-terminus assumed) | 2.57 (≈ 1.17 µM) | 7.56 (≈ 3.44 µM) |  |  |
| ANCWTRKIRGVVGVSCG [Peptide P195, reference compound] |  |  | inactive | inactive |
| N=C(N)NCCC[C@@H]1NC(=O)[C@H](Cc2ccccc2)NC(=O)[C@H](CCCNC(=N)N)NC(=O)[C@H](Cc2ccc(O)cc2)NC(=O)[C@@H]2CCCN2C(=O)[C@H](Cc2ccccc2)NC(=O)[C@@H](NC(=O)[C@H](CCCCN)NC(=O)[C@@H](N)CCCNC(=N)N)CSSC[C@@H](C(=O)N[C@@H](Cc2ccc(O)cc2)C(=O)O)NC(=O)[C@H](CCCCN)NC(=O)[C@H](CCCCN)NC(=O)[C@H](Cc2ccccc2)NC(=O)[C@H](CCCNC(=N)N)NC(=O)[C@H](CCCCN)NC(=O)CNC1=O [SEQ.ID.NO.: 5, Arg*Lys*Cys*Phe*Pro*Tyr*Arg*Phe*Arg*Gly*Lys*Arg*Phe*Lys*Lys*Cys*Tyr*] (H-RKCFPYRFRGKRFKKCY-OH; disulfide 3-16; N-terminus and C-terminus assumed) | 1.09 (≈ 0.478 µM) | 1.08 (≈ 0.473 µM) |  |  |
| CC(C)C[C@H](NC(=O)[C@@H]1CSSC[C@H](NC(=O)CNC(=O)[C@@H](N)CCCNC(=N)N)C(=O)N[C@@H](Cc2c[nH]c3ccccc23)C(=O)N[C@@H](CCCNC(=N)N)C(=O)N[C@@H](Cc2c[nH]c3ccccc23)C(=O)N[C@@H](CCCCN)C(=O)N[C@@H](Cc2c[nH]c3ccccc23)C(=O)N[C@@H](CCCNC(=N)N)C(=O)NCC(=O)N[C@@H](C(C)C)C(=O)N[C@@H](Cc2c[nH]c3ccccc23)C(=O)N[C@@H](Cc2ccc(O)cc2)C(=O)N[C@@H](CCCCN)C(=O)N[C@@H](CCCCN)C(=O)N1)C(=O)O [SEQ.ID.NO.: 7, Arg*Gly*Cys*Trp*Arg*Trp*Lys*Trp*Arg*Gly*Val*Trp*Tyr*Lys*Lys*Cys*Leu*] (H-RGCWRWKWRGVWYKKCL-OH; disulfide 3-16; N-terminus and C-terminus assumed) | 3.4 (≈ 1.47 µM) | 7.81 (≈ 3.38 µM) |  |  |
| C[C@@H](O)[C@@H]1NC(=O)[C@H](Cc2ccccc2)NC(=O)[C@@H](NC(=O)[C@H](CCCCN)NC(=O)[C@@H](N)CCCCN)CSSC[C@@H](C(=O)NCC(=O)O)NC(=O)[C@H](CCCCN)NC(=O)[C@H](CCCNC(=N)N)NC(=O)[C@H](Cc2ccc(O)cc2)NC(=O)[C@H](CC(N)=O)NC(=O)[C@H](CCCCN)NC(=O)CNC(=O)[C@H](CCCNC(=N)N)NC(=O)[C@H](Cc2c[nH]c3ccccc23)NC(=O)[C@H](CCCCN)NC(=O)[C@H](Cc2c[nH]c3ccccc23)NC1=O [SEQ.ID.NO.: 6, Lys*Lys*Cys*Phe*Thr*Trp*Lys*Trp*Arg*Gly*Lys*Asn*Tyr*Arg*Lys*Cys*Gly*] (H-KKCFTWKWRGKNYRKCG-OH; disulfide 3-16; N-terminus and C-terminus assumed) | 0.4 (≈ 0.183 µM) | 1.81 (≈ 0.827 µM) |  |  |
| CC(C)C[C@H](NC(=O)[C@@H]1CSSC[C@H](NC(=O)[C@H](CCCCN)NC(=O)CN)C(=O)N[C@@H](Cc2c[nH]c3ccccc23)C(=O)N[C@@H](CCCCN)C(=O)N[C@@H](Cc2c[nH]c3ccccc23)C(=O)N[C@@H](CCCCN)C(=O)N[C@@H](Cc2ccc(O)cc2)C(=O)N[C@@H](CCCNC(=N)N)C(=O)NCC(=O)N[C@@H](Cc2c[nH]cn2)C(=O)N[C@@H](Cc2ccc(O)cc2)C(=O)N[C@@H](Cc2c[nH]c3ccccc23)C(=O)N[C@@H](CCCNC(=N)N)C(=O)N[C@@H]([C@@H](C)O)C(=O)N1)C(=O)O [SEQ.ID.NO.: 8, Gly*Lys*Cys*Trp*Lys*Trp*Lys*Tyr*Arg*Gly*His*Tyr*Trp*Arg*Thr*Cys*Leu*] (H-GKCWKWKYRGHYWRTCL-OH; disulfide 3-16; N-terminus and C-terminus assumed) | 1.81 (≈ 0.797 µM) | 9.26 (≈ 4.08 µM) |  |  |
| CC[C@H](C)[C@H](N)C(=O)N[C@@H](CCCNC(=N)N)C(=O)N[C@H]1CSSC[C@@H](C(=O)N[C@@H](CC(C)C)C(=O)O)NC(=O)[C@H](CCCCN)NC(=O)[C@H](CCCCN)NC(=O)[C@H](Cc2c[nH]c3ccccc23)NC(=O)[C@H](CCC(N)=O)NC(=O)[C@H](Cc2c[nH]cn2)NC(=O)CNC(=O)[C@H](CCCNC(=N)N)NC(=O)[C@H](Cc2ccc(O)cc2)NC(=O)[C@H](CC(N)=O)NC(=O)[C@H](Cc2c[nH]c3ccccc23)NC(=O)[C@H]([C@@H](C)O)NC(=O)[C@H](C)NC1=O [SEQ.ID.NO.: 10, Ile*Arg*Cys*Ala*Thr*Trp*Asn*Tyr*Arg*Gly*His*Gln*Trp*Lys*Lys*Cys*Leu*] (H-IRCATWNYRGHQWKKCL-OH; disulfide 3-16; N-terminus and C-terminus assumed) | 12.08 (≈ 5.59 µM) | 24.6 (≈ 11.4 µM) |  |  |
| AKCRPLHTRGKQSAVCV [Peptide P14, reference compound] |  |  | inactive | inactive |
| FFCGNKRWRGNYQGSCK [Peptide P127, reference compound] |  |  | inactive | inactive |
| CC[C@H](C)[C@@H]1NC(=O)CNC(=O)[C@H](CCCNC(=N)N)NC(=O)[C@H](Cc2c[nH]c3ccccc23)NC(=O)[C@H]([C@@H](C)O)NC(=O)[C@H](Cc2c[nH]c3ccccc23)NC(=O)[C@H](CCCCN)NC(=O)[C@H](CC(C)C)NC(=O)[C@@H](NC(=O)[C@H](CC(N)=O)NC(=O)[C@@H](N)CCCNC(=N)N)CSSC[C@@H](C(=O)N[C@@H](CCCCN)C(=O)O)NC(=O)[C@H](CCCCN)NC(=O)[C@H](CC(C)C)NC(=O)[C@H](Cc2ccc(O)cc2)NC(=O)[C@H]([C@@H](C)O)NC1=O [SEQ.ID.NO.: 22, Arg*Asn*Cys*Leu*Lys*Trp*Thr*Trp*Arg*Gly*Ile*Thr*Tyr*Leu*Lys*Cys*Lys*] (H-RNCLKWTWRGITYLKCK-OH; disulfide 3-16; N-terminus and C-terminus assumed) |  |  | 1.08 µg/mL (≈ 0.498 µM) | 11.72 µg/mL (≈ 5.41 µM) |
